Assays:
NCI-H1792 cells = experiment: Cell viability IC50 (MTT), AMG510-resistant NCI-H1792 cells; type: cell-based; details: Homo sapiens, NCI-H1792 cells (KRAS G12C)
Procedure: Non-small cell lung cancer cell lines NCI-H1975, NCI-H1650, and NCI-H1792 were cultured in RPMI-1640 medium containing 10% fetal bovine serum and 1% penicillin-streptomycin. 1% sodium pyruvate was additionally added when culturing NCI-H1975 cells. All the cells were cultured in a constant temperature incubator containing 5% CO2 at 37° C.
(1) The cells were cultured to the logarithmic growth phase. When the confluence reached about 90%, the cells were digested with 0.25% trypsin, and complete medium was added to collect the cells. After centrifugation at room temperature, the supernatant was discarded, and the cell precipitate was resuspended with fresh complete medium. […]
(5) The medium was carefully aspirated off, 100 μl of DMSO was added to dissolve the precipitate formed by the reaction with MTT, shaking and mixing to mix the blue-violet crystals well, and the light absorbance value at 492 nm was read with a microplate reader.
(6) IC50 of the compounds for different cells was calculated based on the light absorption value of each group. Specifically, the absorbance value under treatment with different concentrations of compounds was first subtracted from the absorbance value of the blank well, and then the absorbance value of the 0 μM group was taken as 100% to calculate the cell survival rate after treatment with different concentrations of compounds. […]

PE052 primary cells = experiment: Cell viability IC50 (CCK-8), primary cells PE052 from small cell lung cancer pleural effusion; type: cell-based; details: PE052, CCK-8
Procedure: (1) The pleural effusion was poured into a 15 mL or 50 mL of sterilized centrifuge tube for centrifugation. Centrifugation conditions: 800 to 1000 rpm, 5 min.
(2) The precipitate was resuspended and washed for 2 to 3 times with PBS.
(3) The cell precipitate was resuspended with complete culture medium (α-MEM medium containing 10% fetal bovine serum and 2% penicillin-streptomycin), and the flocculent matter in the pleural effusion was removed using a sterilized cell sieve.
(4) The red blood cells in the pleural effusion were removed with lymphocyte separation fluid, and the tumor cells and lymphocyte components were collected. The number of tumor cells was observed under a microscope, and the cells were inoculated.
(5) After 24 hours, the supernatant was discarded, and fresh culture medium was added for further culture.
(6) The cell growth status was observed, and it was determined based on the cell status whether the medium was required to be continuously changed to remove blood cells. When the cells grew to a density of 80% to 90%, the cells were preserved.
(1) Primary cells from lung cancer pleural effusion within 5 generations were cultured to the logarithmic growth phase. […] After centrifugation at room temperature, the supernatant was discarded, and the cell precipitate was resuspended with fresh complete culture medium. After counting, the cells were placed at room temperature for later use. The cells were inoculated into a 384-well plate at a density of 2000 cells/well with a volume of 40 μl/well. The wells at the outermost circle of the plate were not inoculated with cells, and instead, added with sterile water to reduce evaporation of the culture medium.
(2) After overnight culture of the cells, the medium was discarded, and a fresh medium containing different concentrations of compounds was added at 200 μl/well. The dilution method of the compound was as follows: first the compound with the highest concentration of 10 μM was prepared, and then the compound was diluted for 3 times in sequence. […] At the same time, a blank control group was set up, in which only an equal volume of culture medium was added without adding cells. Five replicate wells were set up for each group. The cells were placed in the incubator for further culture.
(3) After 72 hours, 8 μl of CCK-8 solution, which was double-diluted with 10 mM PBS, was added to each well, and the cells were shaken and placed in an incubator at 37° C. for further culture for 2 hours.
(4) The light absorbance value at 450 nm was read using a microplate reader, and the IC50 was calculated according to the absorbance value. The calculation method was the same as above.
(1) Sample information: PE039, PE052, and PE062 were all primary cell samples from pleural effusion of patients with small cell lung cancer, and LT015 was a primary cell sample from bronchoscopic biopsy of a patient with small cell lung cancer.
(2) CCK-8 detection was used to detect the IC50 values of different medicaments (compounds).

SW620 (colon cancer) = experiment: Cell viability IC50 (CellTiter-Glo), SW620; type: cell-based; details: Homo sapiens, SW-620, SW620, 72 hours
Procedure: (§1) The cancer cell lines were cultured to the logarithmic growth phase according to conventional culture methods, and the cells were inoculated into a 384-well plate at a density of 2,000 cells/well in a volume of 40 μl/well. The concentrations of added compounds were: […], 1.67 μM, 0.56 μM, 0.19 μM, 0.062 μM, 0.021 μM, 0.0069 μM, 0.0023 μM, 0.00076 μM, and 0 μM. After 72 hours, cell viability was detected using the CellTiter-Glo™ Detection Kit.

HT29 (colon cancer) = experiment: Cell viability IC50 (CellTiter-Glo), HT29; type: cell-based; details: Homo sapiens, HT-29, HT29, 72 hours
Procedure: as §1

A375 (melanoma) = experiment: Cell viability IC50 (CellTiter-Glo), A375; type: cell-based; details: Homo sapiens, A-375, A375, 72 hours
Procedure: as §1

AGS (gastric cancer) = experiment: Cell viability IC50 (CellTiter-Glo), AGS; type: cell-based; details: 72 hours
Procedure: as §1

[1] = system: small cell lung cancer cell line H446 cells; experiment: In vivo antitumor effect in mice bearing small cell lung cancer cell line H446 cells (CDX model)
Procedure: H446 cells in the logarithmic growth phase were suspended in PBS solution, and then inoculated subcutaneously in the right forelimb of nude mice. The cell density was about 2×10^8 cells/mL, and each mouse was inoculated with 0.1 mL of the cell suspension, for a total of 80 mice. When the subcutaneous tumor grew to range from 50 mm^3 to 100 mm^3, 40 tumor-bearing mice were randomly divided into groups and numbered, and drug administration began.
(1) Vehicle blank control group: 5% DMSO+20% PEG 300+75% saline (normal saline);
The cycle repeated twice, and no medication for the final 6 days.
All tumor-bearing mice were killed after 20 days.

`CN1CC2CCC(C1)N2Cc1ccc(Nc2ncc(Cl)c(Nc3ccccc3S(=O)(=O)N(C)C)n2)cc1` [Compound 8, 2-((5-chloro-2-((4-((3-methyl-3,8-diazabicyclo[3.2.1]octan-8-yl)methyl)phenyl)amino)pyrimidin-4-yl)amino)-N,N-dimethylbenzenesulfonamide] was tested, and the IC50 (NCI-H1792 cells) was 40.6 nM, the IC50 (PE052 primary cells) was 59.9 nM and the IC50 (SW620 (colon cancer)) was 101 nM. The IC50 (HT29 (colon cancer)) was 190 nM, the IC50 (A375 (melanoma)) was 23.3 nM and the IC50 (AGS (gastric cancer)) was 36.2 nM. For the same compound, the toxicity ([1]; H446 CDX nude mice, 15 mg/kg, judged from body weight) was “not significant”, the “inhibitory effect on tumor volume growth compared with blank control (FIG. 1)” value ([1]; H446 CDX nude mice, intraperitoneal injection, 20 days) was “significantly inhibited the growth of tumor volume” and the animals survived ([1]; H446 CDX nude mice, intraperitoneal injection, 20 days, compound 8 and TP-0903 15 mg/kg once a day for 13 days, Cisplatin 2.5 mg/kg + Etoposide 4 mg/kg cycles) was 11 out of 12. The “body weight changes of nude mice (FIG. 2)” value ([1]; during the drug administration period, recovered rapidly after drug withdrawal) was “slight decrease in body weight”.

Reference: patent US20240360145A1, “PYRIMIDINE-2,4-DIAMINE DERIVATIVES AS WELL AS PREPARATION METHOD THEREFOR AND USE THEREOF” (LISEN THERAPEUTICS, INC., priority 2022, published 2024)
